Experiments:
[1] = test system: H1975-HGF xenografts; test: Antitumor activity in H1975-HGF human lung carcinoma xenograft model; type: in vivo, female athymic nude mice; settings: for TGI as compared to controls: Day 28, 10 mg/kg each agent, TKI po qd x 21, JNJ-372 ip biwk x 3
[2] = Body weight and clinical signs of nude mice bearing H1975 xenografts; type: in vivo, female athymic nude mice; settings: for body weight change compared to the control group: H1975-xenograft-bearing nude mice, 10 mg/kg, JNJ-372 at Day 29, TKI-containing groups p<0.05; for day of euthanasia due to negative clinical signs / animals euthanized due to negative clinical signs: H1975 study; for animals euthanized due to negative clinical signs: n=10/group, unclear whether due to tumor burden or treatment
Experimental: (§1) Female athymic nude mice were used in the studies (n=10/group). Treatment began when SC tumors reached approximately 100 to 300 mm^3 in size. and dosing was initiated according to the treatment plan summarized in Table 2. […] The control group was dosed with vehicle orally daily for 21 days, and the isotype control antibody was dosed twice a week IP for 3 weeks. Mice were monitored for body weight and tumor volume up to Day 95, and were euthanized when individual tumor volume reached 2,000 mm^3 or at study conclusion.
(§2) Relative body weight of individual mice was calculated using the formula: (W/W0)×100, where ‘W’ represents body weight on a particular day, and ‘W0’ represents body weight at initiation of treatment. Body weight was graphically represented as mean % of initial body weight±SEM.
Statistical significance was evaluated for all pairwise comparisons on the last day of the study when at least eight mice remained in each group. Differences between groups were considered significant when p≤0.05. Statistical significance of tumor volume and body weight was calculated using the Linear Mixed-Effects analysis in R software version 3.4.2 (using Janssen's internally developed Shiny application version 3.3), with treatment and time as fixed effects and animal as random effect. Logarithmic transformation (base 10) was performed if individual longitudinal response trajectories were not linear. The information derived from this model was used to make pairwise treatment comparisons to the control group or between all the treatment groups.

[3] = Body weight and clinical signs of nude mice bearing H1975-HGF xenografts; type: in vivo, female athymic nude mice; settings: for day found dead or euthanized / mice found dead or euthanized due to negative clinical signs: H1975-HGF study; for mice found dead or euthanized due to negative clinical signs: n=10/group, unclear whether due to tumor burden or treatment; for body weight change compared to the control group: H1975-HGF-tumor-bearing mice, 10 mg/kg, JNJ-372 at Day 28, TKI-containing groups p<0.05
Experimental: as §1, §2
Tumor volume and body weight data were graphically represented using Prism software (GraphPad, version 7). Statistical significance was evaluated for all pairwise comparisons on the last day of the study when at least eight mice remained in each group. Differences between groups were considered significant when p≤0.05. […] Logarithmic transformation (base 10) was performed if individual longitudinal response trajectories were not linear. The information derived from this model was used to make pairwise treatment comparisons to the control group or between all the treatment groups.
The experimental design was as described in Example 1 except that H1975 cells stably transfected to express hepatocyte growth factor (HGF) (H1975-HGF cells) were used in the studies and hereafter referred to as H1975-HGF-CNT.

[4] = target: mouse EGFR (Mus musculus, UniProt Q01279); test: Binding of JNJ-372 to mouse EGFR
[5] = target: mouse c-Met (Mus musculus, UniProt P16056); test: Binding of JNJ-372 to mouse c-Met
Sequence of mouse c-Met (P16056 25-1379): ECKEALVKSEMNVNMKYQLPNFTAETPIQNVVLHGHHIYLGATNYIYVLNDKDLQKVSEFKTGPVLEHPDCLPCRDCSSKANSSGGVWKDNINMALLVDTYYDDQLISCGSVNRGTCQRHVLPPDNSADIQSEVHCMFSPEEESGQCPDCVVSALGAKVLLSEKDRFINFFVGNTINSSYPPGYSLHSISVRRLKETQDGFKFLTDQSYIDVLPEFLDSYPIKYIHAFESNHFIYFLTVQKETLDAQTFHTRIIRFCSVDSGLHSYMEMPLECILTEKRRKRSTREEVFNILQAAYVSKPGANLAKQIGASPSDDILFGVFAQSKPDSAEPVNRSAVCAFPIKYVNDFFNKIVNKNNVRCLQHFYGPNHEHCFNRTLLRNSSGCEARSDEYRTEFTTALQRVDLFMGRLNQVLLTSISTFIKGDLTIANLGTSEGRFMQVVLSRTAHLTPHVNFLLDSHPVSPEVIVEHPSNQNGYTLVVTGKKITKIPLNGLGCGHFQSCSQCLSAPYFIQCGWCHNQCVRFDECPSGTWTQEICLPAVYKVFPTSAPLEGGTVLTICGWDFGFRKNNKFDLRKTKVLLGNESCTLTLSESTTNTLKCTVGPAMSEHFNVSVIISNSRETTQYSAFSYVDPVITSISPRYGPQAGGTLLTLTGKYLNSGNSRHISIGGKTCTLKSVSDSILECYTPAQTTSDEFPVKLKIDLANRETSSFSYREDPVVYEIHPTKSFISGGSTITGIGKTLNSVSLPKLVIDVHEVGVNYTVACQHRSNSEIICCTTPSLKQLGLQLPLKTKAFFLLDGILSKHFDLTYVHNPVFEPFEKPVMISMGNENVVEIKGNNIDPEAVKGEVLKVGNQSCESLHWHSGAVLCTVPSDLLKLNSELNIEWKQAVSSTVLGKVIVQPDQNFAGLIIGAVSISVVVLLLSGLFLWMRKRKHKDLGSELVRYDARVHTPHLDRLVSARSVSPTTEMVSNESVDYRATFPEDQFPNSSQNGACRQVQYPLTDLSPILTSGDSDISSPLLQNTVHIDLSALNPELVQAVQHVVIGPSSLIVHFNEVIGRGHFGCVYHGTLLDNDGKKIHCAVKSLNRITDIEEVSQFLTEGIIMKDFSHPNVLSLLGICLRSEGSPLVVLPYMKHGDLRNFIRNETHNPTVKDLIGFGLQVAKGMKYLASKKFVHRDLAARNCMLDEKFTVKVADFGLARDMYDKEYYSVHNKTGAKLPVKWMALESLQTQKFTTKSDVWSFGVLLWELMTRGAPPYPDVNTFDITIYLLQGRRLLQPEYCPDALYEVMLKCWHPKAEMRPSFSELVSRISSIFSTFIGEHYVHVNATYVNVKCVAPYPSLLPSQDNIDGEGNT

[6] = test system: H1975 human lung xenografts; test: Antitumor activity in H1975 human lung carcinoma xenograft model; settings: for TGI as compared to controls: Day 28, 10 mg/kg each agent, TKI po qd x 21, JNJ-372 ip biwk x 3
Experimental: The animals were fed ad libitum water (reverse osmosis, 1 ppm Cl) and NIH 31 Modified and Irradiated Lab Diet® consisting of 18.0% crude protein, 5.0% crude fat, and 5.0% crude fiber. The mice were housed on irradiated Enrich-o'Cobs™ Laboratory Animal Bedding in static microisolators on a 12-hour light cycle at 20-22° C. (68-72° F.) and at 40-60% humidity. All studies complied with the recommendations of the Guide for Care and Use of Laboratory Animals with respect to restraint, husbandry, surgical procedures, feed and fluid regulation, and veterinary care.
NCI-H1975 cells were grown to mid-log phase in RPMI 1640 medium containing 10% fetal bovine serum, 2 mM glutamine, 100 units/mL sodium penicillin G, 25 μg/mL gentamicin, and 100 μg/mL streptomycin sulfate. The tumor cells were cultured in tissue culture flasks in a humidified incubator at 37° C., in an atmosphere of 5% CO2 and 95% air.
On the day of implant, the NCI-H1975 cells were harvested during log phase growth and resuspended in phosphate buffered saline (PBS) at a concentration of 5×10^7 cells/mL. Xenografts were initiated by subcutaneously implanting 5×10^6 NCI-H1975 cells per animal (0.1 mL suspension) into the right flank of each test animal and tumors were monitored as their volumes approached the target range of 150-200 mm^3. Fifteen days later, animals were sorted into bins by calculated tumor volumes based on vernier caliper measurements of tumor width and length to the nearest mm. The animals were then heuristically sorted among treatment groups, balancing the distribution of small to large sized tumor volumes among group assignments. […] Tumor size, in mm3, was calculated using the following formula: Tumor Volume=(w^2×l)/2 where w=width and l=length, in mm, of the tumor. […]
Female athymic nude mice were used in the studies (n=10/group). […] Mice were monitored for body weight and tumor volume up to Day 95, and were euthanized when individual tumor volume reached 2,000 mm^3 or at study conclusion.
Tumor volume data were graphically represented as the mean tumor volume±SEM. Tumor volume was calculated using the formula: tumor volume (mm^3)=(D×d2)/2; where ‘D’ represents the larger diameter, and ‘d’ the smaller diameter of the tumor as determined by caliper measurements.
The % TGI was defined as the difference between mean tumor burden of the treated and control group, calculated as % ΔTGI=([(TVc−TVc0)−(TVt−TVt0)]/(TVc−TVc0))×100 where ‘TVc’ is the mean tumor burden of a given control group, ‘TVc0’ is the mean initial tumor burden of a given control group, ‘TVt’ is the mean tumor burden of the treated group, and ‘TVt0’ is the mean initial tumor burden of the treated group.

[7] = test system: EGFR-mutated NSCLC; test: FIH dose escalation study of lazertinib monotherapy; type: in vivo, human
Experimental: The safety profile and preliminary efficacy of both agents in EGFR-mutated NSCLC population is based upon clinical experience of approximately 100 subjects in each study, including those enrolled into expansion cohorts at their respective RP2D.
In the current monotherapy dosing regimen, lazertinib is administered as a daily oral therapy, while JNJ-61186372 is administered intravenously weekly during Cycle 1, and then every other week thereafter, beginning with Cycle 2 Day 1.

[8] = n=10/group, 10 mg/kg each agent

Row | Compound | TGI as compared to controls [1] | body weight change compared to the control group [2] | day of euthanasia due to negative clinical signs [2] | animals euthanized due to negative clinical signs [2] | day found dead or euthanized [3] | mice found dead or euthanized due to negative clinical signs [3] | body weight change compared to the control group [3] | binding to mouse EGFR [4] | binding to mouse c-Met [5] | TGI as compared to controls [6] | CRs (complete tumor regression) [1, 8] | dose from which clinical activity in the targeted population was demonstrated ([7]; EGFR-mutated NSCLC) | DLTs ([7]; through doses up to 320 mg) | CRs (complete tumor regression, tumor not measurable on last day of analysis) [6, 8]
1 | JNJ-372 | 70% | did not elicit significant body weight loss | 43 days | One | 53 days | One | did not elicit significant body weight loss | does not bind | does not bind | 86% |  |  |  | 
2 | C=CC(=O)Nc1cc(Nc2nccc(-n3cc(CN(C)C)c(-c4ccccc4)n3)n2)c(OC)cc1N1CCOCC1 [Lazertinib, N-(5-(4-(4-((dimethylamino)methyl)-3-phenyl-1H-pyrazol-1-yl)pyrimidin-2-ylamino)-4-methoxy-2-morpholinophenyl)acrylamide] | 75% | some transient body weight loss | 21 days | One |  |  | some transient body weight loss |  |  | 112% | 2 of 10 | 240 mg | no DLTs were observed | 1 of 10
3 | C=CC(=O)Nc1cc(Nc2nccc(-c3cn(C)c4ccccc34)n2)c(OC)cc1N(C)CCN(C)C [Osimertinib, reference compound] | 57% | some transient body weight loss |  |  | 51 days | One | some transient body weight loss |  |  | 111% |  |  |  | 
